{"source": "paper PMC5762338", "about": "“A novel orally available Syk/Src/Jak2 inhibitor, SKLB-850, showed potent anti-tumor activities in B cell lymphoma (BCL) models” (Oncotarget, 2017)", "key": {"LY-10": {"test_system": "LY-10", "assay": "MTT anti-viability assay", "format": "cell-based", "conditions": "LY10, LY-10, Human diffuse large B cell lymphoma, 72 hours", "method": "(§1) In vitro anti-viability activities of SKLB-850 against various tumor cell lines were measured using the MTT method.\n(§2) Human cancer cell lines Ramos-ZHL, HBL-1, SuDHL-6, LY-10, LY-1, RAJI, MDA-MB-231, SW1990, SMMC7721, MCF-7, CFPAC-1, HPAC, A549 and H358 were obtained from American Type Culture Collection (ATCC). All tumor cell lines were maintained according to the ATCC procedures and passaged for less than 6 months after receipt for resuscitation. These cells were cultured in RPMI-1640 supplemented with 10% fetal bovine serum (FBS).\n(§3) Cell proliferation was measured using the MTT assay as previously described. Various cells including were treated with indicated concentrations of SKLB-850 for 72 hours. R788 (Selleck.cn) was served as a positive control. Each assay was replicated 3 times."}, "MDA-MB-231": {"test_system": "MDA-MB-231", "assay": "MTT anti-viability assay", "format": "cell-based", "conditions": "MDA-MB-231, Human breast cancer cell, 72 hours", "method": "as §1, §2, §3"}, "HBL-1": {"test_system": "HBL-1", "assay": "MTT anti-viability assay", "format": "cell-based", "conditions": "HBL1, HBL-1, Human diffuse large B cell lymphoma, 72 hours", "method": "as §1, §2, §3"}, "MCF-7": {"test_system": "MCF-7", "assay": "MTT anti-viability assay", "format": "cell-based", "conditions": "MCF7, MCF-7, Human breast cancer cell, 72 hours", "method": "as §1, §2, §3"}, "A549": {"test_system": "A549", "assay": "MTT anti-viability assay", "format": "cell-based", "conditions": "A549, Human non-small cell lung cancer cells, 72 hours", "method": "as §1, §2, §3"}, "HPAC": {"test_system": "HPAC", "assay": "MTT anti-viability assay", "format": "cell-based", "conditions": "Human pancreatic cancer cell, 72 hours", "method": "as §1, §2, §3"}, "LY-1": {"test_system": "LY-1", "assay": "MTT anti-viability assay", "format": "cell-based", "conditions": "Ly1, LY-1, Human diffuse large B cell lymphoma, 72 hours", "method": "as §1, §2, §3"}, "RAJI": {"test_system": "RAJI", "assay": "MTT anti-viability assay", "format": "cell-based", "conditions": "Human B cell lymphoma, 72 hours", "method": "as §1, §2, §3"}, "GSK3β": {"biological_target": "T1, GSK3β (Homo sapiens, UniProt P49841)", "T1 construct": "purchased Millipore (Kinase Profiler service)", "T1 sequence (P49841 whole entry)": "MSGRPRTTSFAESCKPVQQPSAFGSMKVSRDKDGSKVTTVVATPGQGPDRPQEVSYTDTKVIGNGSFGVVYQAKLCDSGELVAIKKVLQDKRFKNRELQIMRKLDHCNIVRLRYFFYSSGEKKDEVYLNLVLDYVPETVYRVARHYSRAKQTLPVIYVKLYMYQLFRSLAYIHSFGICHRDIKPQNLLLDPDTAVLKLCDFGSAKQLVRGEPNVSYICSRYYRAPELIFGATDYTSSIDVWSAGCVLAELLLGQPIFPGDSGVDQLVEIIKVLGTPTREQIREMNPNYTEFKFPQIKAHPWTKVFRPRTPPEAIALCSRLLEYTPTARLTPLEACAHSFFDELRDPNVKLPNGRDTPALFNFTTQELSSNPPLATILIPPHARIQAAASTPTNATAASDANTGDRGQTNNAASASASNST", "assay": "Kinase inhibition, 33P radiometric assay (Millipore Kinase Profiler)", "format": "biochemical", "method": "(§4) Kinase inhibitory potency of SKLB-850 against a number of selected kinases were measured with gold-standard^33 P radio-labeled technology. […] For the remaining 11 kinases tested, SKLB-850 exibited very weak or no activity (IC50 > 10 μM).\n(§5) The IC50 values of SKLB-850 for kinase inhibition in vitro were measured by radiometric assays conducted by Kinase Profiler service provided by Millipore as described in Pan’s study."}, "EGRF": {"biological_target": "T2, EGRF (Homo sapiens, UniProt P00533)", "T2 construct": "purchased Millipore (Kinase Profiler service)", "T2 sequence (P00533 25-1210)": "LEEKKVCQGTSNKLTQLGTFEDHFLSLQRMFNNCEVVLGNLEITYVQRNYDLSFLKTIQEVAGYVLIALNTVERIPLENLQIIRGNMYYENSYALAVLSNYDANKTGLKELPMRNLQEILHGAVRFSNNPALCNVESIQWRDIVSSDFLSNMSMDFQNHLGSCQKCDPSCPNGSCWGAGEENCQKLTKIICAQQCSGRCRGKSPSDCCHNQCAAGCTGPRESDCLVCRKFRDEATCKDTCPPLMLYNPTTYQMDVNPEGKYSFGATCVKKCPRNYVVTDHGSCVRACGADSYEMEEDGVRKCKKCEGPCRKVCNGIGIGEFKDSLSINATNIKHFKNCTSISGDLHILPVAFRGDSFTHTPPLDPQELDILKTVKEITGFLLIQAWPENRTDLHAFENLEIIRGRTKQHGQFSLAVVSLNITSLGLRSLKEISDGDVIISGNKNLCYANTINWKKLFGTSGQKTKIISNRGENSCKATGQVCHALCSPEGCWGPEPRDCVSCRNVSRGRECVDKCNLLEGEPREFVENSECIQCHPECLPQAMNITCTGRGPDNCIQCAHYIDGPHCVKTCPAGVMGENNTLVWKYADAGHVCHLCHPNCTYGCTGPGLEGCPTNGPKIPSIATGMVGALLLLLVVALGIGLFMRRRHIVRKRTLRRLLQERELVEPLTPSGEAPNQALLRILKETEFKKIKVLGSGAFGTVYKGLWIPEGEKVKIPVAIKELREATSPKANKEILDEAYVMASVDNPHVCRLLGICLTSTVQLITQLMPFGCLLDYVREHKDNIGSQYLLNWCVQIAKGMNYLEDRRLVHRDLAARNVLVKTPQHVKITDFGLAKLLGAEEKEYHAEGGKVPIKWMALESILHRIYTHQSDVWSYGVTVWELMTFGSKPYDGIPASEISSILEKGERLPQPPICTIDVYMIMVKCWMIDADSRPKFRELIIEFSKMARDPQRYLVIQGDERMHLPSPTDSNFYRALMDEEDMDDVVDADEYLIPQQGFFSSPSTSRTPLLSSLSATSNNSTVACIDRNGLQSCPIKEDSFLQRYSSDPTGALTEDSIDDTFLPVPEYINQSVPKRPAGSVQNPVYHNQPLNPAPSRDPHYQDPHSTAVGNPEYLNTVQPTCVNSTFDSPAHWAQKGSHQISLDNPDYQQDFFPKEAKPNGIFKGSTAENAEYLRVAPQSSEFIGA", "assay": "Kinase inhibition, 33P radiometric assay (Millipore Kinase Profiler)", "format": "biochemical", "conditions": "EGRF (text: EGFR)", "method": "as §4, §5"}, "PKCα": {"biological_target": "T3, PKCα (Homo sapiens, UniProt P17252)", "T3 construct": "purchased Millipore (Kinase Profiler service)", "assay": "Kinase inhibition, 33P radiometric assay (Millipore Kinase Profiler)", "format": "biochemical", "method": "as §4, §5"}, "JAK2": {"biological_target": "T4, JAK2 (Homo sapiens, UniProt O60674)", "T4 construct": "purchased Millipore (Kinase Profiler service)", "assay": "Kinase inhibition, 33P radiometric assay (Millipore Kinase Profiler)", "format": "biochemical", "method": "as §4, §5"}, "MKK4": {"biological_target": "T5, MKK4 (Mus musculus, UniProt P47809)", "T5 construct": "purchased Millipore (Kinase Profiler service)", "assay": "Kinase inhibition, 33P radiometric assay (Millipore Kinase Profiler)", "format": "biochemical", "method": "as §4, §5"}, "CDK3": {"biological_target": "T6, CDK3 (Homo sapiens, UniProt Q00526)", "T6 construct": "purchased Millipore (Kinase Profiler service)", "T6 sequence (Q00526 whole entry)": "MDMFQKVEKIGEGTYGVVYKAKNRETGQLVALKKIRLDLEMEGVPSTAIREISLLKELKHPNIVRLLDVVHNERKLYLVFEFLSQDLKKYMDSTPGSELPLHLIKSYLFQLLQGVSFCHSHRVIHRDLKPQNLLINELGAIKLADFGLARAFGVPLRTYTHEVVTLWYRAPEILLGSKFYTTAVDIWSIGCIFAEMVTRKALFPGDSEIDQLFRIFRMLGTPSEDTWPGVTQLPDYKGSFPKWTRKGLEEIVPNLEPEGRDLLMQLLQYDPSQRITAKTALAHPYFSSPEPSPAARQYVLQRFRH", "T6 sequence (P24864 whole entry partner)": "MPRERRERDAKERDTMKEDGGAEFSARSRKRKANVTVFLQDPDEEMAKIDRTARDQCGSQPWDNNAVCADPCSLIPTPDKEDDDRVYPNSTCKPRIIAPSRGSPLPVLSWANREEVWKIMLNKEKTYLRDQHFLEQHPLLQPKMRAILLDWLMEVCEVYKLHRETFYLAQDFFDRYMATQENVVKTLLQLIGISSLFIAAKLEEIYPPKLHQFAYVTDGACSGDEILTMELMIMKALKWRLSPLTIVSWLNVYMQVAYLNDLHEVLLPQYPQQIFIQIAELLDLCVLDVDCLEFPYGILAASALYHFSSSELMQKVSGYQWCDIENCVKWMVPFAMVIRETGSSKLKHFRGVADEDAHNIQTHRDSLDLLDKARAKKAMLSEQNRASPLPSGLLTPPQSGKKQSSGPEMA", "assay": "Kinase inhibition, 33P radiometric assay (Millipore Kinase Profiler)", "format": "biochemical", "method": "as §4, §5"}, "GSK3α": {"biological_target": "T7, GSK3α (Homo sapiens, UniProt P49840)", "T7 construct": "purchased Millipore (Kinase Profiler service)", "assay": "Kinase inhibition, 33P radiometric assay (Millipore Kinase Profiler)", "format": "biochemical", "method": "as §4, §5"}, "EphB3": {"biological_target": "T8, EphB3 (Homo sapiens, UniProt P54753)", "T8 construct": "purchased Millipore (Kinase Profiler service)", "assay": "Kinase inhibition, 33P radiometric assay (Millipore Kinase Profiler)", "format": "biochemical", "method": "as §4, §5"}, "Pim-1": {"biological_target": "T9, Pim-1 (Homo sapiens, UniProt P11309)", "T9 construct": "purchased Millipore (Kinase Profiler service)", "assay": "Kinase inhibition, 33P radiometric assay (Millipore Kinase Profiler)", "format": "biochemical", "method": "as §4, §5"}, "Pim-2": {"biological_target": "T10, Pim-2 (Homo sapiens, UniProt Q9P1W9)", "T10 construct": "purchased Millipore (Kinase Profiler service)", "T10 sequence (Q9P1W9 whole entry)": "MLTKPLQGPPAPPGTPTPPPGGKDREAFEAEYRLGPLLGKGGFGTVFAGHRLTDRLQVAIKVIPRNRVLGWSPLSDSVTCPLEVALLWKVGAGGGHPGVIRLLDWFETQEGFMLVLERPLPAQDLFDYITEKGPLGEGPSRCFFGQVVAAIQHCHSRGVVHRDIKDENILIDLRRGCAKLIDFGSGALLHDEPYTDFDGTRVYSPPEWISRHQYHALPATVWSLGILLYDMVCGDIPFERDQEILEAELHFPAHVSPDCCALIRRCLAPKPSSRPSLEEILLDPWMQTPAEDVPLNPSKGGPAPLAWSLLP", "assay": "Kinase inhibition, 33P radiometric assay (Millipore Kinase Profiler)", "format": "biochemical", "method": "as §4, §5"}, "Src": {"biological_target": "T11, Src (Homo sapiens, UniProt P12931)", "T11 construct": "purchased Millipore (Kinase Profiler service)", "assay": "Kinase inhibition, 33P radiometric assay (Millipore Kinase Profiler)", "format": "biochemical", "method": "as §4, §5"}, "mTOR": {"biological_target": "T12, mTOR (Homo sapiens, UniProt P42345)", "T12 construct": "purchased Millipore (Kinase Profiler service)", "assay": "Kinase inhibition, 33P radiometric assay (Millipore Kinase Profiler)", "format": "biochemical", "method": "as §4, §5"}, "GRK1": {"biological_target": "T13, GRK1 (Homo sapiens, UniProt Q15835)", "T13 construct": "purchased Millipore (Kinase Profiler service)", "T13 sequence (Q15835 whole entry)": "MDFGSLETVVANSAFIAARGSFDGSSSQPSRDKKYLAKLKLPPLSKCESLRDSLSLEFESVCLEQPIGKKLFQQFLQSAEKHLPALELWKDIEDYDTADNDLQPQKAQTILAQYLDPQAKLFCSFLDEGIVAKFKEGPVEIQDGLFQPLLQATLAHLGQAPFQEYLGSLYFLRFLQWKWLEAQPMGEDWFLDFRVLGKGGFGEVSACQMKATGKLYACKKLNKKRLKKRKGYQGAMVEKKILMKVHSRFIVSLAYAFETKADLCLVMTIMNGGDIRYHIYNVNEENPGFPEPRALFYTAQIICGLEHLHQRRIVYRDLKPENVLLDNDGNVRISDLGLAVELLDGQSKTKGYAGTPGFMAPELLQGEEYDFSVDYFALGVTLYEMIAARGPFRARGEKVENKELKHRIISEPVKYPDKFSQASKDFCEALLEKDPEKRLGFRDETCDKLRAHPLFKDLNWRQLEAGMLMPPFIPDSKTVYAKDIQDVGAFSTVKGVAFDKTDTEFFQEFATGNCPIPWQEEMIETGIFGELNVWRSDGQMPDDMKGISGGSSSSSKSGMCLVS", "assay": "Kinase inhibition, 33P radiometric assay (Millipore Kinase Profiler)", "format": "biochemical", "method": "as §4, §5"}, "FAK": {"biological_target": "T14, FAK (Homo sapiens, UniProt Q05397)", "T14 construct": "purchased Millipore (Kinase Profiler service)", "T14 sequence (Q05397 whole entry)": "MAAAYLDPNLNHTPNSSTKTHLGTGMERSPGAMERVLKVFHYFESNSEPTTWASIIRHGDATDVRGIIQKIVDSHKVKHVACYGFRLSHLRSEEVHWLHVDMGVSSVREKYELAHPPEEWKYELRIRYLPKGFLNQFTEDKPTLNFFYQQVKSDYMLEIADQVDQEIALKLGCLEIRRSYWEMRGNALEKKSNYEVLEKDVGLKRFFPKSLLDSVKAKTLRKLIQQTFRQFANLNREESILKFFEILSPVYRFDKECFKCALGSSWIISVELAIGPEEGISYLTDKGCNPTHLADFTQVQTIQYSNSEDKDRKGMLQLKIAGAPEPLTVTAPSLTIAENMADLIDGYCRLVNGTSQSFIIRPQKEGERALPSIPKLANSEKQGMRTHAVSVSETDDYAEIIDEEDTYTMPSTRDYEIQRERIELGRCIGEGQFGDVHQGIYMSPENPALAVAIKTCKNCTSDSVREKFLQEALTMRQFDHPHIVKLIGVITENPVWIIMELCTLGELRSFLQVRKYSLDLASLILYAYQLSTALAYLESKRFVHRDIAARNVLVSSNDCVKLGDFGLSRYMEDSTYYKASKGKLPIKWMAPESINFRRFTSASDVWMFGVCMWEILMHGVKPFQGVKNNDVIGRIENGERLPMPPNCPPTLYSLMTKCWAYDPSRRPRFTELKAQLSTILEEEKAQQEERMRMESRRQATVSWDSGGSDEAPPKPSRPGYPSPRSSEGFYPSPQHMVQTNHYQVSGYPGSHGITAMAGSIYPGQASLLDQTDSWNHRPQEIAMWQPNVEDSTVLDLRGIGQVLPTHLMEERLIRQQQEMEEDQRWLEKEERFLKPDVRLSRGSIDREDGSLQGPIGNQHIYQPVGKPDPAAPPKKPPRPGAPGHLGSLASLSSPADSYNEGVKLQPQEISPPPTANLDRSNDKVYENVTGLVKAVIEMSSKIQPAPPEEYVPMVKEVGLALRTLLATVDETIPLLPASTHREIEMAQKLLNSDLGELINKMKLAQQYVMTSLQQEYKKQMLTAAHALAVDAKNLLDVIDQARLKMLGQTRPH", "assay": "Kinase inhibition, 33P radiometric assay (Millipore Kinase Profiler)", "format": "biochemical", "method": "as §4, §5"}, "Syk": {"biological_target": "T15, Syk (Homo sapiens, UniProt P43405)", "T15 construct": "purchased Millipore (Kinase Profiler service)", "assay": "Kinase inhibition, 33P radiometric assay (Millipore Kinase Profiler)", "format": "biochemical", "method": "as §4, §5"}, "PIP4K2α": {"biological_target": "T16, PIP4K2α (Homo sapiens, UniProt P48426)", "T16 construct": "purchased Millipore (Kinase Profiler service)", "assay": "Kinase inhibition, 33P radiometric assay (Millipore Kinase Profiler)", "format": "biochemical", "method": "as §4, §5"}, "PKBα": {"biological_target": "T17, PKBα (Homo sapiens, UniProt P31749)", "T17 construct": "purchased Millipore (Kinase Profiler service)", "T17 sequence (P31749 whole entry)": "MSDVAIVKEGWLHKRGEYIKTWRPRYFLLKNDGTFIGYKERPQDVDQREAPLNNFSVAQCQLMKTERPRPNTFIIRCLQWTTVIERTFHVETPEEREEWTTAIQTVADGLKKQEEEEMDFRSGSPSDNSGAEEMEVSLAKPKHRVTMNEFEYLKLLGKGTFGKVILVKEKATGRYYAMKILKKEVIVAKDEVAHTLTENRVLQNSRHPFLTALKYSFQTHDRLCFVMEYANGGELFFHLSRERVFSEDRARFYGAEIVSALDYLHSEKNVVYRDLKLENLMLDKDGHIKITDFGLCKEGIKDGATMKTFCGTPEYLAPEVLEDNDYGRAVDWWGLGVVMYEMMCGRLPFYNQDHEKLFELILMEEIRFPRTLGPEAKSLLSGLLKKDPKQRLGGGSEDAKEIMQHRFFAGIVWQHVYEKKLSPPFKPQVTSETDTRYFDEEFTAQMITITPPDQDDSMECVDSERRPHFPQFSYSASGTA", "assay": "Kinase inhibition, 33P radiometric assay (Millipore Kinase Profiler)", "format": "biochemical", "method": "as §4, §5"}, "[1]": {"test_system": "Syk, Src/FAK, JAK2/STAT3 and NF-κB p65 phosphorylation in Ramos tumor tissues", "assay": "Immunohistochemistry of phospho-proteins in tumor tissues from the Ramos tumor model", "format": "in vivo, NOD/SCID mice", "method": "To understand the mechanism of antitumor activities in vivo, pivotal protein activities of Syk/ERK, Src/FAK and JAK2/STAT3 signaling pathways were detected by Western blot analysis. […] Immunohistochemistry assays were performed using tumor tissues isolated from the Ramos tumor model at the end of treatment.\nParaffin sections from each group were stained with hematoxylineosin (H&E). For immunohistochemistry studies, tumor tissues in the Ramos model were performed and the following antibodies were used: phospho-Src (Cell Signaling Technology, 1:100), phospho-FAK (Cell Signaling Technology, 1:100), phospho-Stat3 (Cell Signaling Technology, 1:100), NF-κB p-65(Cell Signaling Technology, 1:100) and phospho-Syk (Cell Signaling Technology, 1:100). Additionally, Rat anti-mouse CD31 antibody (BD Biosciences, USA) and anti-Ki67 antibody (Gene Tech) were used to determine vessel density and cell proliferation following the manufacturer’s protocol, respectively. A DAKO polymer secondary antibody system (Dako Envision 1K4007) was used for secondary detection. Images were captured using an Olympus digital camera."}, "[2]": {"test_system": "CD184 expression of Ramos cells", "assay": "CD184 (CXCR4) surface expression by flow cytometry", "format": "cell-based, Human", "method": "And BCL cells could migrate toward the chemokine CXCL12 upon activation of its receptor CD184 [27].\nThe expression of surface molecules was analyzed by flow cytometry, using the following monoclonal antibody CD184 (CXCR4), and the relevant isotype controls mAbs (BD biosciences). A total of 10^6 mononuclear cells were incubated for 30 minutes at 4°C with saturating concentrations of mAbs, and the cells were washed twice and analyzed with a flow cytometer (BD FACSCalibur, BD, USA)."}}, "note": "Several values for one entry are separate records, joined by “and”; a condition that tells them apart may be missing. Equal entries are not always repeated."}
{"smiles": "CN1CCN(c2ccc(Nc3ncc(F)c(Nc4ccc(Cl)cc4C(N)=O)n3)cc2)CC1", "note": "[SKLB-850, 5-chloro-2-((5-fluoro-2-((4-(4-methylpiperazin-1-yl)phenyl)amino)pyrimidin-4-yl)amino) benzamide]", "values": [{"measurement": "IC50", "setting": "LY-10", "result": 0.9, "unit": "µM"}, {"measurement": "IC50", "setting": "MDA-MB-231", "result": 2.19, "unit": "µM"}, {"measurement": "IC50", "setting": "HBL-1", "result": 0.69, "unit": "µM"}, {"measurement": "IC50", "setting": "MCF-7", "result": 7.23, "unit": "µM"}, {"measurement": "IC50", "setting": "A549", "result": "> 20", "unit": "µM"}, {"measurement": "IC50 anti-viability", "setting": "A549", "result": "did not exhibit activity"}, {"measurement": "IC50", "setting": "HPAC", "result": "> 20", "unit": "µM"}, {"measurement": "IC50 anti-viability", "setting": "HPAC", "result": "did not exhibit activity"}, {"measurement": "IC50", "setting": "LY-1", "result": 1.6, "unit": "µM"}, {"measurement": "IC50", "setting": "RAJI", "result": 1.95, "unit": "µM"}, {"measurement": "IC50", "setting": "GSK3β", "result": "> 10", "unit": "µM"}, {"measurement": "IC50", "setting": "EGRF", "result": "0.26 µM and 0.255 µM"}, {"measurement": "IC50", "setting": "PKCα", "result": "> 10", "unit": "µM"}, {"measurement": "IC50", "setting": "JAK2", "result": 0.047, "unit": "µM"}, {"measurement": "IC50", "setting": "MKK4", "result": "> 10", "unit": "µM"}, {"measurement": "IC50", "setting": "CDK3", "result": "> 10", "unit": "µM"}, {"measurement": "IC50", "setting": "GSK3α", "result": "> 10", "unit": "µM"}, {"measurement": "IC50", "setting": "EphB3", "result": "> 10", "unit": "µM"}, {"measurement": "IC50", "setting": "Pim-1", "result": "> 10", "unit": "µM"}, {"measurement": "IC50", "setting": "Pim-2", "result": "> 10", "unit": "µM"}, {"measurement": "IC50", "setting": "Src", "result": 0.025, "unit": "µM"}, {"measurement": "IC50", "setting": "mTOR", "result": "> 10", "unit": "µM"}, {"measurement": "IC50", "setting": "GRK1", "result": "> 10", "unit": "µM"}, {"measurement": "IC50", "setting": "FAK", "result": 0.39, "unit": "µM"}, {"measurement": "IC50", "setting": "Syk", "result": 0.041, "unit": "µM"}, {"measurement": "IC50", "setting": "PIP4K2α", "result": "> 10", "unit": "µM"}, {"measurement": "IC50", "setting": "PKBα", "result": 3.18, "unit": "µM"}, {"measurement": "phosphorylation of NF-κB p65 (in words)", "setting": "[1]; tumor tissues from the Ramos tumor model", "result": "inhibited"}, {"measurement": "phosphorylations of Syk, Src/FAK and JAK2/STAT3 (in words)", "setting": "[1]; tumor tissues from the Ramos tumor model at the end of treatment", "result": "inhibited"}, {"measurement": "expression of CD184 (in words)", "setting": "[2]", "result": "decreased the expression of CD184"}]}
